Laboratory results: US12239711B2, “Cereblon ligands and bifunctional compounds comprising the same” (Arvinas Operations, Inc., priority 2014, dated 2025)
Read-outs that look alike come from different tables or passages of the source.

Assays:
[1] = system: estrogen responsive element/promoter/luciferase reporter gene; assay: ERE Luciferase Assay in T47D-KBluc cells; type: cell-based, human; settings: 24 hours, luciferase activity, read-out: Target Engagement IC50
Procedure: 1. ERE Luciferase Assay for Compounds in Table 5.
T47D-KBluc cells (ATCC® #CRL_2865, T47D human breast cancer cells stably transfected with estrogen responsive element/promoter/luciferase reporter gene) were seeded into 96-well white opaque plates in RPMI growth medium supplemented with 10% fetal bovine serum (FBS) and allowed to adhere overnight in a 37° C. humidified incubator. The following day, cells were treated with PROTACs in a 12-point concentration curve (top final concentration of 300 nM with subsequent concentrations being 3-fold less with 2 pM being the lowest concentration in the assay). Each PROTAC was tested independently in two experiments on 96-well plates. After 24 hours, media was removed and lysis buffer was added to the wells. Following lysis, Bright-Glo™ Luciferase Assay Substrate (Promega, Madison WI) was added and the luciferase activity was measured using a Cytation 3 plate reader (BioTek™, Winooski, VT). Each compound was assayed in duplicate and the activity was calculated as IC50 using GraphPad Prism software (San Diego, CA).

[2] = molecular target: T1, Estrogen Receptor-Alpha (ERα) (Homo sapiens, UniProt P03372); assay: Estrogen Receptor-Alpha (ERα) degradation assay in MCF-7 cells (western blot / In-Cell Western); type: cell-based; settings: for Dmax: MCF7, read-out: ER Dmax; for DC50: read-out: ER DC50
T1 construct: endogenous in cells; host or cells: MCF-7 (MCF7) cells
T1 sequence (P03372 1-595): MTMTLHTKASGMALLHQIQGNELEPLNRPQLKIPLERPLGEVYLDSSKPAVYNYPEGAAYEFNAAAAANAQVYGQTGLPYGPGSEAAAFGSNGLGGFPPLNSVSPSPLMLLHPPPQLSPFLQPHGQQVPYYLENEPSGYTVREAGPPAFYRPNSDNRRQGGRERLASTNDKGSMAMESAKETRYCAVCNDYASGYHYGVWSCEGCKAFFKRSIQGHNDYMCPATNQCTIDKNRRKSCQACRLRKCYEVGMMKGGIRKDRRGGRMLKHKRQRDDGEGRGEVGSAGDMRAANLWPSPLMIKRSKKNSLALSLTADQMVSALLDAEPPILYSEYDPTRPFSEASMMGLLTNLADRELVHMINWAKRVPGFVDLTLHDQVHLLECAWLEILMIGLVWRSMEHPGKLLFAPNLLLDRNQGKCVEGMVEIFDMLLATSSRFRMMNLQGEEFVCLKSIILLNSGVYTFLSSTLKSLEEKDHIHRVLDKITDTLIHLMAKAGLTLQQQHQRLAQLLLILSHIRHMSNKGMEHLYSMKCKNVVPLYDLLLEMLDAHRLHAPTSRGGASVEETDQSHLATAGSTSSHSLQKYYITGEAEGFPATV
Procedure: 2. Estrogen Receptor-Alpha (ERα) Degradation Assay in MCF-7 Cells Using Western Blot Method for Table 5.
The exemplary novel ERα degraders were assessed for their activity in degrading ERα in MCF-7 cells via western blot. The assay was carried out in the presence of 10% FBS or high percentage of human or mouse serum. Protocols of the western blot assay are described below.
MCF7 cells were grown in DMEM/F12 with 10% FBS and seeded at 24,000 cells per well in 100 μl into 96-well clear tissue culture plates. The following day, the cells were treated with PROTACs in a […] concentration curve with 100 nM being the top concentration and serial dilutions to make the other concentrations (30 nM, 10 nM, 3 nM, 1 nM, and 0.3 nM). At all concentrations, 0.01% DMSO is the final concentration in the well. The following day, the plates are aspirated, washed with 50 μl of cold PBS. The cells are lysed with 50 μl/well 4° C. Cell Lysis Buffer (Catalog #9803; Cell Signaling Technology, Danvers, MA) (20 mM Tris-HCL (pH 7.5), 150 mM NaCl, 1 mM Na2EDTA, 1 mM EGTA, 1% Triton, 2.5 mM sodium pyrophosphate, 1 mM B-glycerophosphate, 1 mM sodium vanadate, 1 ug/ml leupeptin). Lysates were clarified at 16,000×g for 10 minutes, and 2 μg of protein was subjected to SDS-PAGE analysis and followed by immunoblotting according to standard protocols. The antibodies used were ERα (Cell Signaling Technologies Catalog #8644), and Tubulin (Sigma Catalog #T9026; St. Louis, MO). Detection reagents were Clarity Western ECL substrate (Bio-Rad Catalog #170-5060; Hercules, CA).
Alternatively, MCF7 cells were grown in DMEM/F12 with 10% FBS and seeded at 24,000 cells per well in 500 μl in 24-well clear tissue culture plates. The following day, the cells were treated with PROTACs in a 5-point concentration curve (100 nM, 33 nM, 11 nM, 3.7 nM, and 1.2 nM) in the presence of 0.01% DMSO. After 72 hours, the wells are aspirated and washed with 500 μl of PBS. The cells are lysed with 100 μl/well 4° C. Cell Lysis Buffer (Catalog #9803; Cell Signaling Technology, Danvers, MA) (20 mM Tris-HCL (pH 7.5), 150 mM NaCl, 1 mM Na2EDTA, 1 mM EGTA, 1% Triton, 2.5 mM sodium pyrophosphate, 1 mM B-glycerophosphate, 1 mM sodium vanadate, 1 ug/ml leupeptin). Lysates were clarified at 16,000×g for 10 minutes, and 2 μg of protein was subjected to SDS-PAGE analysis and followed by immunoblotting according to standard protocols. The antibodies used were ERα (Cell Signaling Technologies Catalog #8644), and Tubulin (Sigma Catalog #T9026; St. Louis, MO). Detection reagents were Clarity Western ECL substrate (Bio-Rad Catalog #170-5060; Hercules, CA).
3. Estrogen Receptor-Alpha (ERα) Degradation Assay Using In-Cell Western™ Assay for Table 5.
Degradation of ERα by claimed compounds were determined in MCF7 cells using an In-Cell Western™ assay. Briefly, MCF7 cells were plated in 96-well plates (2000 cells per well in 100 μl media) and incubated at 37° C. under an atmosphere of 5% CO2 in a humidified incubator overnight. One-hundred (100) μl of media containing test compound (at 2× concentration) was added to the appropriate wells to provide 11 serially decreasing concentrations (top final concentration, 1 μM then 3-fold less for the next 10 concentrations); a vehicle control (DMSO) was also added for each compound. For each experiment, all compounds were assayed in duplicate plates. Cells were then incubated for 3 or 5 days in the above-mentioned environment. The assay was terminated by removal of media, a single wash with ice-cold PBS and the addition of 50 μl paraformaldehyde (PFA: 4% in PBS). After 15 minutes in PFA at room temperature, the cells were permeabilized in Tris-phosphate-buffered saline with Tween (0.1%) (TBST) supplemented with Triton X-100 (0.5%) for 15 minutes. Cells were then blocked in BSA (TBST with BSA, 3%) for one hour. […]

Row | IC50 ([1]; Homo sapiens) [nM] | Dmax [2] [%] | DC50 [2] [nM] | SMILES | IC50 [1] [nM] | ER Dmax [2]
1 | > 300 | < 50 | – | COCCOCCOc1c(N2CCN(CC3CCN(c4ccc([C@H]5c6ccc(O)cc6CC[C@H]5c5ccccc5)cc4)CC3)CC2)ccc2c1CN(C1CCC(=O)NC1=O)C2=O (stereo partly drawn) [compound 5, 3-(5-{4-[(l-{4-[(1S,2R)-6-hydroxy-2-phenyl-1,2,3,4-tetrahydronaphthalen-1-yl]phenyl}piperidin-4-yl)methyl]piperazin-1-yl}-4-[2-(2-methoxyethoxy)ethoxy]-1-oxo-2,3-dihydro-1H-isoindol-2-yl)piperidine-2,6-dione] | – | –
2 | 0.5 | 50 to 75 | < 1 | O=C1CCC(N2Cc3cc(N4CCN(CCC5(O)CC(Oc6ccc([C@@H]7c8ccc(O)cc8CC[C@@H]7c7ccccc7)cc6)C5)CC4)cc(OC(F)F)c3C2=O)C(=O)N1 (stereo partly drawn) [compound 27, 3-[7-(difluoromethoxy)-5-[4-[2-[1-hydroxy-3-[4-[(1R,2S)-6-hydroxy-2-phenyl-tetralin-1-yl]phenoxy]cyclobutyl]ethyl]piperazin-1-yl]-1-oxo-isoindolin-2-yl]piperidine-2,6-dione] | – | –
3 | 0.37 | ≥ 75 | < 1 | COc1cc(N2CCN(CCCCCOc3ccc([C@@H]4c5ccc(O)cc5CC[C@@H]4c4ccccc4)cc3)CC2)cc2c1C(=O)N([C@@H]1CCC(=O)NC1=O)C2 [compound 13, (3R)-3-[5-[4-[5-[4-[(1R,2S)-6-hydroxy-2-phenyl-tetralin-1-yl]phenoxy]pentyl]piperazin-1-yl]-7-methoxy-1-oxo-isoindolin-2-yl]piperidine-2,6-dione] | – | –
4 | 1.35 | ≥ 75 | < 1 | COc1c(N2CCN(CCCCCOc3ccc([C@@H]4c5ccc(O)cc5CC[C@@H]4c4ccccc4)cc3)CC2)ccc2c1CN(C1CCC(=O)NC1=O)C2=O (stereo partly drawn) [compound 3, 3-[5-[4-[5-[4-[(1R,2S)-6-hydroxy-2-phenyl-tetralin-1-yl]phenoxy]pentyl]piperazin-1-yl]-4-methoxy-1-oxo-isoindolin-2-yl]piperidine-2,6-dione] | – | –
5 | 0.79 | ≥ 75 | 1 to 10 | COc1cc(N2CCN(CCCCCOc3ccc([C@@H]4c5ccc(O)cc5CC[C@@H]4c4ccccc4)cc3)CC2)cc2c1C(=O)N(C1CCC(=O)NC1=O)C2 (stereo partly drawn) [compound 2, 3-(5-(4-(5-(4-((1R,2S)-6-hydroxy-2-phenyl-1,2,3,4-tetrahydronaphthalen-1-yl)phenoxy)pentyl)piperazin-1-yl)-7-methoxy-1-oxoisoindolin-2-yl)piperidine-2,6-dione] | – | –
6 | 2 | 50 to 75 | 1 to 10 | COCCOc1c(N2CCN(CC3CCN(c4ccc([C@@H]5c6ccc(O)cc6CC[C@@H]5c5ccccc5)cc4)CC3)CC2)ccc2c1CN(C1CCC(=O)NC1=O)C2=O (stereo partly drawn) [compound 11, 3-[5-[4-[[1-[4-[(1R,2S)-6-hydroxy-2-phenyl-tetralin-1-yl]phenyl]-4-piperidyl]methyl]piperazin-1-yl]-4-(2-methoxyethoxy)-1-oxo-isoindolin-2-yl]piperidine-2,6-dione] | – | –
7 | 1.7 | ≥ 75 | < 1 | COc1cc(N2CCN(CC3CCN(c4ccc([C@@H]5c6ccc(O)cc6CC[C@@H]5c5ccccc5)cc4)CC3)CC2)cc2c1C(=O)N(C1CCC(=O)NC1=O)C2 (stereo partly drawn) [compound 15, 3-[5-[4-[[1-[4-[(1R,2S)-6-hydroxy-2-phenyl-tetralin-1-yl]phenyl]-4-piperidyl]methyl]piperazin-1-yl]-7-methoxy-1-oxo-isoindolin-2-yl]piperidine-2,6-dione] | – | –
8 | 0.3 | ≥ 75 | < 1 | COc1cc(N2CCN(CCC3(O)CC(Oc4ccc([C@@H]5c6ccc(O)cc6CC[C@@H]5c5ccccc5)cc4)C3)CC2)cc2c1C(=O)N(C1CCC(=O)NC1=O)C2 (stereo partly drawn) [compound 28, 3-[5-[4-[2-[1-hydroxy-3-[4-[(1R,2S)-6-hydroxy-2-phenyl-tetralin-1-yl]phenoxy]cyclobutyl]ethyl]piperazin-1-yl]-7-methoxy-1-oxo-isoindolin-2-yl]piperidine-2,6-dione] | – | –
9 | 1.42 | ≥ 75 | < 1 | COCCOCCOc1c(N2CCN(CCCCCOc3ccc([C@@H]4c5ccc(O)cc5CC[C@@H]4c4ccccc4)cc3)CC2)ccc2c1CN(C1CCC(=O)NC1=O)C2=O (stereo partly drawn) [compound 4, 3-[5-[4-[5-[4-[(1R,2S)-6-hydroxy-2-phenyl-tetralin-1-yl]phenoxy]pentyl]piperazin-1-yl]-4-[2-(2-methoxyethoxy)ethoxy]-1-oxo-isoindolin-2-yl]piperidine-2,6-dione] | – | –
10 | 2.4 | < 50 | – | O=C1CCC(N2C(=O)c3ccc(N4CCN(CC5CCN(c6ccc([C@@H]7c8ccc(O)cc8CC[C@@H]7c7ccccc7)cc6)CC5)CC4)cc3C23CC3)C(=O)N1 (stereo partly drawn) [compound 29, 3-(6′-{4-[(1-{4-[(1R,2S)-6-hydroxy-2-phenyl-1,2,3,4-tetrahydronaphthalen-1-yl]phenyl}piperidin-4-yl)methyl]piperazin-1-yl}-3′-oxo-2′,3′-dihydrospiro[cyclopropane-1,1′-isoindole]-2′-yl)piperidine-2,6-dione] | – | –

Row | SMILES | IC50 ([1]; Homo sapiens) [nM] | Dmax [2] [%] | DC50 [2] [nM] | IC50 [1] [nM] | ER Dmax [2]
11 | COc1cc(N2CCN(C3CC4CC(Oc5ccc([C@@H]6c7ccc(O)cc7CC[C@@H]6c6ccc(F)cc6)cc5)CC4C3)CC2)cc2c1C(=O)N(C1CCC(=O)NC1=O)C2 (stereo partly drawn) [compound 16, 3-[5-[4-[5-[4-[(1R,2S)-2-(4-fluorophenyl)-6-hydroxy-tetralin-1-yl]phenoxy]-1,2,3,3a,4,5,6,6a-octahydropentalen-2-yl]piperazin-l-yl]-7-methoxy-1-oxo-isoindolin-2-yl]piperidine-2,6-dione] | – | – | < 1 | 0.82 | B (50 <= B < 75)
